Laboratory results published in patent US20260109732A1, “LIPID AMINES” (ModernaTX, Inc., priority 2021, published 2026).
Counter-ions that a name gives are not always drawn.

Key:
[1] = Diameter and PDI from DLS measurements of mRNA nanoparticles with lipid amines; assay type: physicochemical
Description: (§1) Lipids are dissolved in ethanol at a concentration of 24 mg/mL and molar ratios of 49.0:11.2:39.3:0.5 (IL1:DSPC:cholesterol:PEG-DMG-2K) and mixed with the acidification buffer (45 mM acetate buffer at pH 4). The lipid solution and acidification buffer are mixed using a multi-inlet vortex mixer at a 3:7 volumetric ratio of lipid:buffer for mixer 1 and mixer 2 and a 1:3 volumetric ratio of lipid:buffer (25% ethanol) for mixer 3. After a 5 second residence time, the resulting nanoparticles are mixed with 55 mM sodium acetate at pH 5.6 at a volumetric ratio of 5:7 of nanoparticle:buffer. See Table 2a for mixing parameters. The resulting dilute nanoparticles are then buffer exchanged and concentrated using tangential flow filtration (TFF) into a final buffer containing 5 mM sodium acetate pH 5.0. Then a 70% sucrose solution in 5 mM acetate buffer at pH 5 is subsequently added.
(§2) The resulting nanoparticles at a lipid concentration of 7.33 mg/mL in 5 mM acetate (pH 5) and 75 g/L sucrose are mixed with mRNA (luciferease or CFTR) at a concentration of 0.625 mg/mL in 42.5 mM sodium acetate pH 5.0, with N:P of 4.93. The nanoparticle solution and nanoparticles are mixed using a multi-inlet vortex mixer at a 3:2 volumetric ratio of nanoparticle:mRNA. Once loaded with mRNA, these intermediate nanoparticles undergo a 300 second residence time prior addition of neutralization buffer containing 120 mM TRIS pH 8.12 at a volumetric ratio of 5:1 of nanoparticle:buffer.
(§3) For HeLa studies evaluating luciferase protein expression, PEG-DMG-2K dissolved in a 20 mM TRIS buffer (pH 7.5) is added to the neutralized intermediate nanoparticle solution at a ratio of 1:6, bringing the solution to the final molar ratios of IL1:DSPC:cholesterol:PEG-DMG-2K of 48.5:11.1:38.9:1.5%. This nanoparticle formulation is then modified with lipid amines. In a typical example, nanoparticle formulation at a concentration of 0.18 mg/mL mRNA and a 0.56 mL volume is modified with lipid amine SA50 (467.2 nmol) prepared in buffer containing 20 mM TRIS, 14.3 mM sodium acetate, 32 g/L sucrose and 140 mM NaCl-pH 7.5 at a volumetric ratio of 1:1 of nanoparticle:buffer.
(§4) For HeLa studies evaluating CFTR protein expression, the intermediate nanoparticle formulation (1 mL, 0.415 mg mRNA) is mixed with a buffer containing 20 mM TRIS (pH 7.5), 0.9 mg/mL PEG-DMG-2K and lipid amine SA50 (647.1 nmol) at a volumetric ratio of 6:1 of nanoparticle:buffer. The resulting nanoparticle suspension undergoes concentration using a centrifugal filtration device (100 kDa molecular weight cut-off) and is diluted in running buffer (20 mM TRIS, 14.3 mM sodium acetate, and 32 g/L sucrose, pH 7.5) with a 300 mM NaCl solution to a final buffer matrix containing 70 mM NaCl.
(§5) Both resulting nanoparticle suspensions are filtered through a 0.8/0.2 μm capsule filter and filled into glass vials at an mRNA strength of about 0.1-1 mg/mLBliophysical data (Diameter and PDI from DLS measurements and Encapsualtion using Ribogreen assay) for both luciferase and CFTR mRNA nanoparticles with lipid amines is shown in Tables 2c and d, respectively.

[2] = tested on: HeLa cells; assay: Luciferase Protein Expression Assay in HeLa Cells; assay type: cell-based, Human; conditions: LNPs encapsulating Luciferase mRNA, 25 ng per well, N=4 wells; 5 h serum-free then 24 h; ONE-Glo
Description: as §3
(§6) Lipid nanoparticle compositions were prepared in a manner analogous to that in example 2. To evaluate LNP cellular uptake and protein expression In Vitro, HeLa cells from ATCC.org (ATCC CCL-2) are used. The cells are cultured in complete Minimum Essential Medium (MVEM) and are plated in 96 well Cell Carrier Ultra plate with PDL coated surface (PerkinElmer) prior to running an experiment.
Cells were transfected with buffer control (PBS) or LNPs encapsulating Luciferase mRNA (25 ng per well; N=4 replicate wells) in serum-free MEM media. LNP transfected cells were incubated for 5 h, followed by media removal and supplementation with complete MEM media. Cells were further incubated in complete MEM media overnight (24 h). Following the 24 hr incubation, luciferase protein expression was measured using the ONE-Glo™ Luciferase Assay (Promega). Cells were lysed using 1× Passive Lysis Buffer (Cat. #E194A) for 10 min in a microplate mixer at room temperature. Luciferase in the supernatant was measured by adding Luciferase Assay Reagent (Cat. #E151A) containing luciferin. Bioluminescence was then immediately measured on a Synergy H1 plate reader (BioTek). The results shown in Table 3a show the Average Relative Light Units (RLU) of each sample tested.

[3] = Encapsulation of mRNA nanoparticles with lipid amines using Ribogreen assay; assay type: physicochemical
Description: as §1, §2, §3, §4, §5

[4] = tested on: HeLa cells; assay: CFTR Protein Expression Assay in HeLa Cells; assay type: cell-based, Human; conditions: LNPs encapsulating CFTR mRNA, N=4 wells; 5 h serum-free then 24 h; immunofluorescence vs PBS control
Description: as §4, §6
Buffer control (PBS) and LNPs encapsulating cystic fibrosis transmembrane conductance regulator (CFTR) mRNA were dosed with MEM media in the absence of serum (N=4 replicate wells). LNP transfected cells were incubated for 5 h, followed by media removal and supplementation with complete MEM media. Cells were further incubated in complete MEM media overnight (24 h).
Following 24 hr incubation, the cells were fixed with PFA and processed for immunofluorescence (IF) using an anti-CFTR rabbit monoclonal antibody. Briefly, the cells were permeabilized with 0.5% TX-100 for 10 min, blocked with 3% bovine serum albumin (BSA)+PBST for 1 hr at room temperature, and incubated with primary anti-CFTR monoclonal antibody overnight at 4° C. Following primary antibody incubation, the cells were incubated with Alexa 488 conjugated secondary antibody for 30 mi and stained with DAPI and HCS CellMask Blue stain. Between different incubation steps the cells were either washed with PBS or PBST. Cells were imaged using Opera Phoenix spinning disk confocal microscope (PerkinElmer), and CFTR protein expression was detected using the 488 nm channel. The image analysis was performed in Harmony 4.9, with main analysis output being CFTR intensity per cell. The results shown in Table 3b show fold-change in CFTR signal intensity per cell compared to buffer (PBS) control (NA=not available).

[5] = CFTR mRNA nanoparticle with lipid amine
[6] = Luciferase mRNA nanoparticle modified with lipid amine

CC(C)CCC[C@@H](C)[C@H]1CC[C@H]2[C@@H]3CC=C4C[C@@H](OC(=O)N(CCCN)CCCCCCCCN)CC[C@]4(C)[C@H]3CC[C@]12C [SA60, (3S,8S,9S,10R,13R,14S,17R)-10,13-Dimethyl-17-((R)-6-methylheptan-2-yl)-2,3,4,7,8,9,10,11,12,13,14,15,16,17-tetradecahydro-1H-cyclopenta[a]phenanthren-3-yl (8-aminooctyl)(3-aminopropyl)carbamate dihydrochloride]
Diameter (nm) [1, 5]: 70.9 nm | PDI [1, 5]: 0.08 | Diameter (nm) [1, 6]: 74 nm | PDI [1, 6]: 0.13 | Average Relative Light Units ± Standard Deviation [2]: 30508.5 ± 6869.7 Relative Light Units | % Encapsulation (Ribogreen) [3, 5]: 99.5% | % Encapsulation (Ribogreen) [3, 6]: 98.8% | Average fold-change in CFTR signal intensity per cell compared to buffer control ± standard deviation [4]: 10.7 ± 0.1 fold-change

CC(C)CCC[C@@H](C)[C@H]1CC[C@H]2[C@@H]3CC=C4C[C@@H](OC(=O)N(CCCN)CCCCOCCCN)CC[C@]4(C)[C@H]3CC[C@]12C [SA61, (3S,8S,9S,10R,13R,14S,17R)-10,13-Dimethyl-17-((R)-6-methylheptan-2-yl)-2,3,4,7,8,9,10,11,12,13,14,15,16,17-tetradecahydro-1H-cyclopenta[a]phenanthren-3-yl (4-(3-aminopropoxy)butyl)(3-aminopropyl)carbamate dihydrochloride]
Diameter (nm) [1, 5]: 71.3 nm | PDI [1, 5]: 0.11 | Diameter (nm) [1, 6]: 77 nm | PDI [1, 6]: 0.16 | Average Relative Light Units ± Standard Deviation [2]: 14343.1 ± 5298.1 Relative Light Units | % Encapsulation (Ribogreen) [3, 5]: 99.4% | % Encapsulation (Ribogreen) [3, 6]: 99.1% | Average fold-change in CFTR signal intensity per cell compared to buffer control ± standard deviation [4]: 7.2 ± 0.4 fold-change

CC(C)CCC[C@@H](C)[C@H]1CC[C@H]2[C@@H]3CC=C4C[C@@H](OC(=O)C(C)C(=O)N(CCCN)CCCCNCCCN)CC[C@]4(C)[C@H]3CC[C@]12C.Cl.Cl.Cl (stereo partly drawn) [SA62, (3S,8S,9S,10R,13R,14S,17R)-10,13-Dimethyl-17-((R)-6-methylheptan-2-yl)-2,3,4,7,8,9,10,11,12,13,14,15,16,17-tetradecahydro-1H-cyclopenta[a]phenanthren-3-yl 3-((3-aminopropyl)(4-((3-aminopropyl)amino)butyl)amino)-2-methyl-3-oxopropanoate trihydrochloride]
Diameter (nm) [1, 5]: 74.2 nm | PDI [1, 5]: 0.10 | Diameter (nm) [1, 6]: 78 nm | PDI [1, 6]: 0.20 | Average Relative Light Units ± Standard Deviation [2]: 18807.1 ± 6618.4 Relative Light Units | % Encapsulation (Ribogreen) [3, 5]: 99.6% | % Encapsulation (Ribogreen) [3, 6]: 99.0% | Average fold-change in CFTR signal intensity per cell compared to buffer control ± standard deviation [4]: 5.5 ± 1.3 fold-change

CC(C)CCC[C@@H](C)[C@H]1CC[C@H]2[C@@H]3CC=C4C[C@@H](OC(=O)C(=O)N(CCCN)CCCCNCCCN)CC[C@]4(C)[C@H]3CC[C@]12C [SA66, (3S,8S,9S,10R,13R,14S,17R)-10,13-Dimethyl-17-((R)-6-methylheptan-2-yl)-2,3,4,7,8,9,10,11,12,13,14,15,16,17-tetradecahydro-1H-cyclopenta[a]phenanthren-3-yl 2-((3-aminopropyl)(4-((3-aminopropyl)amino)butyl)amino)-2-oxoacetate trihydrochloride]
Diameter (nm) [1, 5]: 75.7 nm | PDI [1, 5]: 0.13 | Diameter (nm) [1, 6]: 72 nm | PDI [1, 6]: 0.18 | Average Relative Light Units ± Standard Deviation [2]: 13951.3 ± 6740.3 Relative Light Units | % Encapsulation (Ribogreen) [3, 5]: 99.5% | % Encapsulation (Ribogreen) [3, 6]: 88.2% | Average fold-change in CFTR signal intensity per cell compared to buffer control ± standard deviation [4]: 2.4 ± 0.1 fold-change

CC[C@H](CC[C@@H](C)[C@H]1CC[C@H]2[C@@H]3CC=C4C[C@@H](OC(=O)N(CCCN)CCCCCCCCN)CC[C@]4(C)[C@H]3CC[C@]12C)C(C)C [SA69, (3S,8S,9S,10R,13R,14S,17R)-17-((2R,5R)-5-Ethyl-6-methylheptan-2-yl)-10,13-dimethyl-2,3,4,7,8,9,10,11,12,13,14,15,16,17-tetradecahydro-1H-cyclopenta[a]phenanthren-3-yl (8-aminooctyl)(3-aminopropyl)carbamate dihydrochloride]
Diameter (nm) [1, 5]: 74.0 nm | PDI [1, 5]: 0.13 | Diameter (nm) [1, 6]: 71 nm | PDI [1, 6]: 0.16 | Average Relative Light Units ± Standard Deviation [2]: 35256.9 ± 8309.9 Relative Light Units | % Encapsulation (Ribogreen) [3, 5]: 99.9% | % Encapsulation (Ribogreen) [3, 6]: 98.9% | Average fold-change in CFTR signal intensity per cell compared to buffer control ± standard deviation [4]: 5.3 ± 0.5 fold-change

C/C(=C/CCC(C)C)[C@H]1CC[C@H]2[C@@H]3CC=C4C[C@@H](OC(=O)N(CCCN)CCCCNCCCN)CC[C@]4(C)[C@H]3CC[C@]12C [SA70, (3S,8S,9S,10R,13R,14S,17R)-10,13-dimethyl-17-((R)-6-methylheptan-2-yl)-2,3,4,7,8,9,10,11,12,13,14,15,16,17-tetradecahydro-1H-cyclopenta[a]phenanthren-3-yl (3-aminopropyl)(4-((3-aminopropyl)amino)butyl)carbamate analog olefin elimination by-product from hydroxycholesterol]
Diameter (nm) [1, 5]: 76.2 nm | PDI [1, 5]: 0.16 | Diameter (nm) [1, 6]: 76 nm | PDI [1, 6]: 0.21 | Average Relative Light Units ± Standard Deviation [2]: 11822.1 ± 4128.6 Relative Light Units | % Encapsulation (Ribogreen) [3, 5]: 99.8% | % Encapsulation (Ribogreen) [3, 6]: 97.9% | Average fold-change in CFTR signal intensity per cell compared to buffer control ± standard deviation [4]: 4.5 ± 0.8 fold-change
